# Measurements as given in patent publication US12171232B1, “N-[(4,6-dimethylpyrimidin-2-yl)carbamothioyl] pyridine-3-carboxamide as an eco-friendly insecticidal agent against Spodoptera littoralis (boisd.)” (KING FAISAL UNIVERSITY, priority 2023, dated 2024).
# Read-outs that look alike come from different tables or passages of the source.
# System: Spodoptera littoralis
# Assay: Insecticidal bioassay screening (castor leaf dip) on larvae of the laboratory strain of cotton leafworm
# Assay type: in vivo
# Conditions: for Toxicity index %: 72 hrs, Diflubenzuron's LC50 / compound's LC50 x 100; for LC90 (mg/L) at 95%: laboratory strain, after 72 hrs of treatment; for LC50: Spodoptera littoralis, foliar
# Description: Five concentrations (200, 100, 50, 25, 12.5 ppm) were designed for this synthetic compound and the reference Diflubenzuron compound as the dynamic ingredients based on ppm via diluting the commercial formulation.
# In this experiment, castor leaves are immersed in each of the previously prepared concentrations of the components for 10 seconds and then left to dry for 60 minutes. Larvae of the second and fourth instars of each checked strain are prepared with treated leaves in gauze-covered glass containers for 72 hrs. An untreated control is made in which leaves are dipped in triton x-100 and distilled water only. Then the preserved leaves were removed & fresh, untreated leaves were provided for 72 hours. Three replicates (10 larvae each) were checked for each concentration. Daily inspection was carried out for all treatments and mortality percentages were recorded 3 days (72 hours) after treatment. The average mortality percentage was corrected employing Abbott's formula. The corrected mortality rate for each of the previously synthesized compounds is statistically calculated according to Finney (1970). Through this rate, the corresponding concentration test lines (LDP lines) are assessed.
# [1] = 72 h, read-out: LC50 (mg/L) at 95%, 2nd instar larvae, laboratory strain, after 72 hrs of treatment
# [2] = 72 h, read-out: LC50 (mg/L) at 95%, 4th instar larvae, laboratory strain, after 72 hrs of treatment
Compound,Toxicity index % (2nd instar larvae) [%],LC90 (mg/L) at 95% (2nd instar larvae) [mg/L],Toxicity index % (4th instar larvae) [%],LC90 (mg/L) at 95% (4th instar larvae) [mg/L],LC50 [1] [mg/L],LC50 [2] [mg/L],"LC50 (against Spodoptera littoralis under laboratory conditions, instar not stated) [mg/L]","activity against Spodoptera littoralis (result in words, from Table 1 and FIGS. 2A-2B, 72 h)"
O=C(NC(=O)c1c(F)cccc1F)Nc1ccc(Cl)cc1 [Diflubenzuron],100,520.0,100,1540.5,45.2,144,45.2,–
"Cc1cc(C)nc(NC(=S)NC(=O)c2cccnc2)n1 [Compound 2, N-[(4,6-Dimethylpyrimidin-2-yl)carbamothioyl]pyridine-3-carboxamide]",31.8,2112.3,44.9,5732.3,~142,~321,–,active
